We go through four compounds from patent publication US6162803A, “Indol-3-yl-cyclohexyl amine derivatives for the treatment of depression” (American Home Products Corp., priority 1999, dated 2000).

The target in test [1] is T1, serotonin transporter (Rattus norvegicus, UniProt P31652).
T1 construct: frontal cortical membranes prepared from male Sprague-Dawley rats; from tissue; host or cells: frontal cortical membranes of male Sprague-Dawley rats
The test is described as follows: [3H]-paroxetine binding, affinity for the serotonin transporter (rat frontal cortical membranes). Further details: species or system male Sprague-Dawley rats. Particulars: 3H-paroxetine (0.1 nM); for Ki: 60 min at 25° C., read-out: Ki (nM) ST [^3 H]paroxetine. The method, then:
A protocol similar to that used by Cheetham et al., Neuropharmacol., 32:737 (1993) was used to determine the affinity of compounds for the serotonin transporter. Briefly, frontal cortical membranes prepared from male Sprague-Dawley rats were incubated with ^3 H-paroxetine (0.1 nM) for 60 min at 25° C. All tubes also contained either vehicle, test compound (one to eight concentrations), or a saturating concentration of fluoxetine (10 μM) to define […]. All reactions are terminated by the addition of ice cold Tris buffer followed by rapid filtration using a Tom Tech filtration device to separate bound from free ^3 H-paroxetine. Bound radioactivity was quantitated using a Wallac 1205 Beta Plate® counter. Nonlinear regression analysis was used to determine IC50 values which were converted to Ki values using the method of Cheng and Prusoff, Biochem. Pharmacol., 22:3099 (1973); Ki=IC50/((Radioligand conc.)/(1+KD)).

In test [2] the target is T2, human 5-HT1A receptor (Homo sapiens, UniProt P08908).
T2 construct: expressed in transfected cells; host or cells: Chinese hamster ovary cells (5-HT1A.CHO), membranes
T2 sequence (P08908 1-422): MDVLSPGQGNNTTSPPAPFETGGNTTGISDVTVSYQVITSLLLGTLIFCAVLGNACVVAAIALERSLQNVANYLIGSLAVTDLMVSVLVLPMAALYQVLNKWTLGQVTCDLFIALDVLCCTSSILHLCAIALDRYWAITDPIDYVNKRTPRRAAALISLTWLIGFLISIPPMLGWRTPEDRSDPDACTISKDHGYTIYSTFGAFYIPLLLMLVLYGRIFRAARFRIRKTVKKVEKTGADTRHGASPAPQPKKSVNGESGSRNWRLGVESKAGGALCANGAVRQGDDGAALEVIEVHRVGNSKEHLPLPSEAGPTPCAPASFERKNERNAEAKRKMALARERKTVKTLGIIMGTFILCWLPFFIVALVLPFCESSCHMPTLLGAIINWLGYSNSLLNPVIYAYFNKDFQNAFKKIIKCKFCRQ
Put plainly: [3H]8-OH-DPAT competition binding at human 5-HT1A receptor (5-HT1A.CHO cell membranes). Particulars: [3H]8-OH-DPAT 1.5 nM; for inhibition at 1 µM: 0.5 h. The method, then: The PCR cloning of the human 5-HT1A receptor subtype from a human genomic library has been described previously Chanda et al., Mol. Pharmacol., 43:516 (1993). A stable Chinese hamster ovary cell line expressing the human 5-HT1A receptor subtype (5-HT1A.CHO cells) was employed throughout this study. Cells were maintained in DMEM supplemented with 10% foetal calf serum, non-essential amino acids and penicillin/streptomycin.
Cells were grown to 95-100% confluency as a monolayer before membranes were harvested for binding studies. Cells were gently scraped from the culture plates, transferred to centrifuge tubes, and washed twice by centrifugation (2000 rpm for 10 min., 4° C.) in buffer (50 mM Tris; pH 7.5). The resulting pellets were aliquoted and placed at -80° C. On the day of assay, the cells were thawed on ice, and resuspended in buffer. Studies were conducted using [^3 H]8-OH-DPAT as the radioligand. The binding assay was performed in 96 well microtiter plates in a final total volume of 250 μL of buffer. Competition experiments were performed by using 7 concentrations of unlabelled drug and a final ligand concentration of 1.5 nM. Non-specific binding was determined in the presence of 10 μM 5HT. Saturation analysis was conducted by using [^3 H]8-OH-DPAT at concentrations ranging from 0.3-30 nM. Following a 30 minute incubation at room temperature, the reaction was terminated by the addition of ice cold buffer and rapid filtration using a M-96 Brandel Cell Harvester (Gaithersburg, Md) through a GF/B filter presoaked for 30 minutes in 0.5% polyethyleneimine.

T1 sequence (P31652 whole entry): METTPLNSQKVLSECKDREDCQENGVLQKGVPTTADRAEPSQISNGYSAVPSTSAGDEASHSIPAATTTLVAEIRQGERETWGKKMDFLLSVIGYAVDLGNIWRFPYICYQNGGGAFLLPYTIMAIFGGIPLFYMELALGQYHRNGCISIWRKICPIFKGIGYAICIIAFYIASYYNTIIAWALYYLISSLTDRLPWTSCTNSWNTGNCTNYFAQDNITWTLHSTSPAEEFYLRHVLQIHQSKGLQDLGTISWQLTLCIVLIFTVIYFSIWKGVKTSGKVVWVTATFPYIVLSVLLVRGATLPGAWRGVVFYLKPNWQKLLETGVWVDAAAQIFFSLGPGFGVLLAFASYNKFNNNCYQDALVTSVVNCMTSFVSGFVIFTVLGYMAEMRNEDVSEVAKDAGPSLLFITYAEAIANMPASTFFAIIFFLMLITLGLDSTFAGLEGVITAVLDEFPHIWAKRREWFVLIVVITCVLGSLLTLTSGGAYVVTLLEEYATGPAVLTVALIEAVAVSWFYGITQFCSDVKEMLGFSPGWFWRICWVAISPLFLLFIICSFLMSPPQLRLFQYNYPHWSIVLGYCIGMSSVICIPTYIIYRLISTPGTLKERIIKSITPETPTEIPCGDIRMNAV

Take `Fc1ccc2[nH]cc([C@H]3CC[C@H](NCC4CNc5ccccc5O4)CC3)c2c1` (relative stereo) [1 (trans), (3,4-Dihydro-benzo[1,4]oxazine-2-ylmethyl)-[trans-4-(5-fluoro-1H-indol-3-yl)-cyclohexyl]-amine]: the Ki in test [1] was determined as 24 nM. Further, the inhibition at 1 µM in test [2] was determined as 44%.
With `Fc1ccc2[nH]cc([C@H]3CC[C@@H](NCC4COc5ccccc5N4)CC3)c2c1` (relative stereo) [2 (cis), (3,4-Dihydro-benzo[1,4]oxazine-3-ylmethyl)-[cis-4-(5-fluoro-1H-indol-3-yl)-cyclohexyl]-amine], the inhibition at 1 µM stood at 34% in test [1] (1 h, @ 1 μM, read-out: ST [^3 H]paroxetine, % @ 1 μM) and 9% in test [2].
`Fc1ccc2[nH]cc([C@H]3CC[C@H](NCC4COc5ccccc5N4)CC3)c2c1` (relative stereo) [2 (trans), (3,4-Dihydro-benzo[1,4]oxazine-3-ylmethyl)-[trans-4-(5-fluoro-1H-indol-3-yl)-cyclohexyl]-amine]: in test [1], the Ki was determined as 10 nM. For the same compound, in test [2], the inhibition at 1 µM amounted to 20%.
Take `Fc1ccc2[nH]cc([C@H]3CC[C@@H](NCC4CNc5ccccc5O4)CC3)c2c1` (stereo partly drawn) [1 (cis), (3,4-Dihydro-benzo[1,4]oxazine-2-ylmethyl)-[cis-4-(5-floro-1H-indol-3-yl)-cyclohexyl]-amine]: the inhibitory constant (Ki) in test [1] was determined as 44 nM; in test [2] (30 minute incubation at room temperature), 2430 nM.

One may read the Ki as the dissociation constant of the complex between target and ligand, obtained from inhibition or displacement.
